Data: patent publication US20230126447A1, “OCULAR DRUG DEPOT FOR COMPLEMENT-MEDIATED DISORDERS” (priority 2020, published 2023)
Values joined by “and” are separate entries in the source; they are usually repeats but may differ in a detail not shown here. Equal entries are not always repeated. Where two headings read alike, the source gives them in different places.

Columns and labels:
[1] = Ocular tissue and plasma pharmacokinetics, 50 mg/kg BID oral, Dutch Belted rabbits (Example 4/5); type: in vivo; details: for concentration at 96 h / concentration at 168 h / concentration at 0 h / concentration at 1 h / concentration at 6 h / concentration at 24 h / concentration at 240 h: 50 mg/kg
Procedure: Study design, including group designation and dose levels, are outlined in Table 15. […] Two Dutch Belted rabbits received vehicle only oral gavage doses for tolerability assessment. […] The dose volume was 5 mL/kg/dose for all groups. Safety was assessed with toxicological and ophthalmic examinations, including slit lamp biomicroscopy, indirect ophthalmoscopy, rebound tonometry, and ultrasonic corneal pachymetry.
For the pharmacokinetic determination, a single blood sample was taken from each rabbit from Groups 1 and 4 at one hour post-dose on Day 15, Group 2 at one hour post-dose on Day 8, and Group 3 at pre-dose, 1, 6, 24, 96, 168, and 240 hours post-dose on Day 15, with the eyes collected at the same time as blood sampling. Plasma, vitreous humor (VH), retina, choroid-retina pigmented epithelium (Choroid-RPE), optic nerve (ON), and iris-ciliary body (I-CB) were analyzed by LC-MS/MS to quantify test article concentrations. The lower limit of quantitation (LLOQ) in plasma and vitreous humor was 1.0 ng/mL. The LLOQ was 6.0 ng/g in retina, choroid-RPE, and I-CB and the optic nerve LLOQ was 15 ng/g, assuming tissue density of 1 g/mL where relevant. […]

AP activity [2] = assay: Wieslab assay (AP activity in vitro); type: biochemical
AP activity [3] = assay: cells; details: Erythrocyte, read-out: IC50 for PNH erythrocyte hemolysis
[4] = male, Dutch Belted, po, Optic Nerve, DB rabbit, 50 mg/kg BID, Day 15
[5] = male, Dutch Belted, po, Plasma, DB rabbit, 50 mg/kg BID, Day 15
[6] = male, Dutch Belted, po, Retina, DB rabbit, 50 mg/kg BID, Day 15
[7] = male, Dutch Belted, po, Vitreous Humor, DB rabbit, 50 mg/kg BID, Day 15

CC(=O)c1nn(CC(=O)N2C[C@H](F)C[C@H]2C(=O)Nc2cccc(Br)n2)c2ccc(-c3cnc(C)nc3)cc12 [Compound 1, (2S,4R)-1-(2-(3-Acetyl-5-(2-methylpyrimidin-5-yl)-1H-indazol-1-yl)acetyl)-N-(6-bromopyridin-2-yl)-4-fluoropyrrolidine-2-carboxamide]
half-life ([1]; male, Dutch Belted, po, Iris-Ciliary Body, DB rabbit, 50 mg/kg BID, Day 15): 178 h
Cmax [1, 4]: 1550 ng/g
MRT last [1, 4]: 4.79 h
Tmax [1, 4]: 1 h
half-life [1, 4]: 7.82 h
AUC(0-inf) [1, 5]: 10100 ng·h/mL
Cmax [1, 5]: 2900 ng/mL
MRT last [1, 5]: 4.73 h
Tmax [1, 5]: 1 h
half-life [1, 5]: 5.98 h
AUC(0-t) ([1]; male, Dutch Belted, po, Plasma, DB rabbit, 50 mg/kg BID, Day 15, read-out: AUC0-t): 9790 ng·h/mL
Cmax [1, 6]: 2120 ng/g
MRT last [1, 6]: 53.2 h
Tmax [1, 6]: 1 h
half-life [1, 6]: 96.1 h
Cmax [1, 7]: 49.2 ng/g and 49.2 ng/mL
MRT last [1, 7]: 7.27 h
Tmax [1, 7]: 1 h
half-life [1, 7]: 5.44 h
AUC(0-t) ([1]; male, Dutch Belted, po, Vitreous Humor, DB rabbit, 50 mg/kg BID, Day 15, read-out: AUClast): 419 ng·h/mL
concentration at 96 h ([1]; male, Dutch Belted, rabbit, choroid-RPE, oral, DB rabbits, Day 15, 50 mg/kg BID, 96 hr, read-out: Mean Choroid-RPE Concentration): 873 ng/g
concentration at 168 h ([1]; male, Dutch Belted, rabbit, choroid-RPE, oral, DB rabbits, Day 15, 50 mg/kg BID, 168 hr, read-out: Mean Choroid-RPE Concentration): 645 ng/g
concentration at 0 h ([1]; male, Dutch Belted, rabbit, choroid-RPE, po, DB rabbit, 50 mg/kg BID oral, Day 15, 0 h, read-out: Mean Choroid-RPE concentration): 3920 ng/g
concentration at 1 h ([1]; male, Dutch Belted, rabbit, choroid-RPE, po, DB rabbit, 50 mg/kg BID oral, Day 15, 1 h, read-out: Mean Choroid-RPE concentration): 8020 ng/g
concentration at 6 h ([1]; male, Dutch Belted, rabbit, choroid-RPE, po, DB rabbit, 50 mg/kg BID oral, Day 15, 6 h, read-out: Mean Choroid-RPE concentration): 4370 ng/g
concentration at 24 h ([1]; male, Dutch Belted, rabbit, choroid-RPE, po, DB rabbit, 50 mg/kg BID oral, Day 15, 24 h, read-out: Mean Choroid-RPE concentration): 2100 ng/g
concentration at 240 h ([1]; male, Dutch Belted, rabbit, choroid-RPE, po, DB rabbit, 50 mg/kg BID oral, Day 15, 240 h, read-out: Mean Choroid-RPE concentration): 194 ng/g
concentration at 0 h ([1]; male, Dutch Belted, rabbit, iris-ciliary body, po, DB rabbit, 50 mg/kg BID oral, Day 15, 0 h, read-out: Mean Iris-Ciliary Body concentration): 5080 ng/g
concentration at 1 h ([1]; male, Dutch Belted, rabbit, iris-ciliary body, po, DB rabbit, 50 mg/kg BID oral, Day 15, 1 h, read-out: Mean Iris-Ciliary Body concentration): 11500 ng/g
concentration at 6 h ([1]; male, Dutch Belted, rabbit, iris-ciliary body, po, DB rabbit, 50 mg/kg BID oral, Day 15, 6 h, read-out: Mean Iris-Ciliary Body concentration): 8820 ng/g
concentration at 24 h ([1]; male, Dutch Belted, rabbit, iris-ciliary body, po, DB rabbit, 50 mg/kg BID oral, Day 15, 24 h, read-out: Mean Iris-Ciliary Body concentration): 5560 ng/g
concentration at 96 h ([1]; male, Dutch Belted, rabbit, iris-ciliary body, po, DB rabbit, 50 mg/kg BID oral, Day 15, 96 h, read-out: Mean Iris-Ciliary Body concentration): 2840 ng/g
concentration at 168 h ([1]; male, Dutch Belted, rabbit, iris-ciliary body, po, DB rabbit, 50 mg/kg BID oral, Day 15, 168 h, read-out: Mean Iris-Ciliary Body concentration): 2290 ng/g
concentration at 240 h ([1]; male, Dutch Belted, rabbit, iris-ciliary body, po, DB rabbit, 50 mg/kg BID oral, Day 15, 240 h, read-out: Mean Iris-Ciliary Body concentration): 1620 ng/g
concentration at 0 h ([1]; male, Dutch Belted, rabbit, optic nerve, po, DB rabbit, 50 mg/kg BID oral, Day 15, 0 h, read-out: Optic Nerve concentration): 45.3 ng/g
concentration at 1 h ([1]; male, Dutch Belted, rabbit, optic nerve, po, DB rabbit, 50 mg/kg BID oral, Day 15, 1 h, read-out: Optic Nerve concentration): 1550 ng/g
concentration at 6 h ([1]; male, Dutch Belted, rabbit, optic nerve, po, DB rabbit, 50 mg/kg BID oral, Day 15, 6 h, read-out: Optic Nerve concentration): 133 ng/g
concentration at 24 h ([1]; male, Dutch Belted, rabbit, optic nerve, po, DB rabbit, 50 mg/kg BID oral, Day 15, 24 h, read-out: Optic Nerve concentration): 27 ng/g
concentration at 0 h ([1]; male, Dutch Belted, rabbit, plasma, po, DB rabbit, 50 mg/kg BID oral, Day 15, 0 h, read-out: Mean plasma concentration): 104 ng/mL
concentration at 1 h ([1]; male, Dutch Belted, rabbit, plasma, po, DB rabbit, 50 mg/kg BID oral, Day 15, 1 h, read-out: Mean plasma concentration): 2900 ng/mL
concentration at 6 h ([1]; male, Dutch Belted, rabbit, plasma, po, DB rabbit, 50 mg/kg BID oral, Day 15, 6 h, read-out: Mean plasma concentration): 320 ng/mL
concentration at 24 h ([1]; male, Dutch Belted, rabbit, plasma, po, DB rabbit, 50 mg/kg BID oral, Day 15, 24 h, read-out: Mean plasma concentration): 39.9 ng/mL
concentration at 0 h ([1]; male, Dutch Belted, rabbit, retina, oral, DB rabbits, Day 15, 50 mg/kg BID, 0 hr, read-out: Mean Retina Concentration): 159 ng/g
concentration at 1 h ([1]; male, Dutch Belted, rabbit, retina, oral, DB rabbits, Day 15, 50 mg/kg BID, 1 hr, read-out: Mean Retina Concentration): 2120 ng/g
concentration at 6 h ([1]; male, Dutch Belted, rabbit, retina, oral, DB rabbits, Day 15, 50 mg/kg BID, 6 hr, read-out: Mean Retina Concentration): 725 ng/g
concentration at 24 h ([1]; male, Dutch Belted, rabbit, retina, oral, DB rabbits, Day 15, 50 mg/kg BID, 24 hr, read-out: Mean Retina Concentration): 265 ng/g
concentration at 96 h ([1]; male, Dutch Belted, rabbit, retina, oral, DB rabbits, Day 15, 50 mg/kg BID, 96 hr, read-out: Mean Retina Concentration): 32.3 ng/g
concentration at 168 h ([1]; male, Dutch Belted, rabbit, retina, oral, DB rabbits, Day 15, 50 mg/kg BID, 168 hr, read-out: Mean Retina Concentration): 54.9 ng/g
concentration at 240 h ([1]; male, Dutch Belted, rabbit, retina, oral, DB rabbits, Day 15, 50 mg/kg BID, 240 hr, read-out: Mean Retina Concentration): 39.4 ng/g
concentration at 0 h ([1]; male, Dutch Belted, rabbit, retina, po, DB rabbit, 50 mg/kg BID oral, Day 15, 0 h, read-out: Mean retina concentration): 159 ng/g
concentration at 1 h ([1]; male, Dutch Belted, rabbit, retina, po, DB rabbit, 50 mg/kg BID oral, Day 15, 1 h, read-out: Mean retina concentration): 2120 ng/g
concentration at 6 h ([1]; male, Dutch Belted, rabbit, retina, po, DB rabbit, 50 mg/kg BID oral, Day 15, 6 h, read-out: Mean retina concentration): 725 ng/g
concentration at 24 h ([1]; male, Dutch Belted, rabbit, retina, po, DB rabbit, 50 mg/kg BID oral, Day 15, 24 h, read-out: Mean retina concentration): 265 ng/g
concentration at 96 h ([1]; male, Dutch Belted, rabbit, retina, po, DB rabbit, 50 mg/kg BID oral, Day 15, 96 h, read-out: Mean retina concentration): 32.3 ng/g
concentration at 168 h ([1]; male, Dutch Belted, rabbit, retina, po, DB rabbit, 50 mg/kg BID oral, Day 15, 168 h, read-out: Mean retina concentration): 54.9 ng/g
concentration at 240 h ([1]; male, Dutch Belted, rabbit, retina, po, DB rabbit, 50 mg/kg BID oral, Day 15, 240 h, read-out: Mean retina concentration): 39.3 ng/g
concentration at 0 h ([1]; male, Dutch Belted, rabbit, vitreous humor, po, DB rabbit, 50 mg/kg BID oral, Day 15, 0 h, read-out: Vitreous concentration): 2.91 ng/g
concentration at 1 h ([1]; male, Dutch Belted, rabbit, vitreous humor, po, DB rabbit, 50 mg/kg BID oral, Day 15, 1 h, read-out: Vitreous concentration): 49.2 ng/g
concentration at 6 h ([1]; male, Dutch Belted, rabbit, vitreous humor, po, DB rabbit, 50 mg/kg BID oral, Day 15, 6 h, read-out: Vitreous concentration): 28.7 ng/g
concentration at 24 h ([1]; male, Dutch Belted, rabbit, vitreous humor, po, DB rabbit, 50 mg/kg BID oral, Day 15, 24 h, read-out: Vitreous concentration): 2.9 ng/g
Tlast ([1]; plasma, DB rabbit, 50 mg/kg BID, Day 15): 24 h
C-RPE drug concentration at least 10 days following the last oral administration ([1]; rabbit, 50 mg/kg BID): 196 ng/mL
IC50 (AP activity [2]): 26 nM
IC50 (AP activity [3]): 14 nM
